The text below walks through data of patent US20130310379A1, “MODULATORS OF METHYL MODIFYING ENZYMES, COMPOSITIONS AND USES THEREOF” (CONSTELLATION PHARMACEUTICALS, priority 2010, published 2013).

Usually pIC50 stands for −log10 of the IC50, conventionally taken in molar units.

The structures appear in SMILES notation. pIC50: −log10 of the molar value.

EZH2, sequence (Q15910 whole entry): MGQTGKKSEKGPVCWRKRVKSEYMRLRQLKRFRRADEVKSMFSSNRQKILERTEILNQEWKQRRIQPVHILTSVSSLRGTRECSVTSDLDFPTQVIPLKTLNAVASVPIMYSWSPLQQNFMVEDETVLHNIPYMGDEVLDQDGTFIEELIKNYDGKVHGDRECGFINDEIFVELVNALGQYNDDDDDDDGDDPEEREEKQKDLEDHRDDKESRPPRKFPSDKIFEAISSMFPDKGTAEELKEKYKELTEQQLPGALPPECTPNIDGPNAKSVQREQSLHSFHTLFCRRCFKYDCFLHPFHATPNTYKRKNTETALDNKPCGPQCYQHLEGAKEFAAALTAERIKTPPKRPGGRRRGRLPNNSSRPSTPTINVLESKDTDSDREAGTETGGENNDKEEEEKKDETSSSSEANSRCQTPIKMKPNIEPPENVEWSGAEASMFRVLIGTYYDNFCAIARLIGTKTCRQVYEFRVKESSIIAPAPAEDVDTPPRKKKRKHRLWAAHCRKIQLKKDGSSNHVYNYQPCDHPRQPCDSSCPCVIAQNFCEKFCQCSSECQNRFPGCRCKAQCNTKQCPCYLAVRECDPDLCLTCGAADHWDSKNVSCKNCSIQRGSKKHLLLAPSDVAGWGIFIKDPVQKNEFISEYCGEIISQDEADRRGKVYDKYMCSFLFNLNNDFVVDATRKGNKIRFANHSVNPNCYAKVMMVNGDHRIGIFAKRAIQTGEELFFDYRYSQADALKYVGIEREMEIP
EZH2, sequence (O75530 whole entry partner): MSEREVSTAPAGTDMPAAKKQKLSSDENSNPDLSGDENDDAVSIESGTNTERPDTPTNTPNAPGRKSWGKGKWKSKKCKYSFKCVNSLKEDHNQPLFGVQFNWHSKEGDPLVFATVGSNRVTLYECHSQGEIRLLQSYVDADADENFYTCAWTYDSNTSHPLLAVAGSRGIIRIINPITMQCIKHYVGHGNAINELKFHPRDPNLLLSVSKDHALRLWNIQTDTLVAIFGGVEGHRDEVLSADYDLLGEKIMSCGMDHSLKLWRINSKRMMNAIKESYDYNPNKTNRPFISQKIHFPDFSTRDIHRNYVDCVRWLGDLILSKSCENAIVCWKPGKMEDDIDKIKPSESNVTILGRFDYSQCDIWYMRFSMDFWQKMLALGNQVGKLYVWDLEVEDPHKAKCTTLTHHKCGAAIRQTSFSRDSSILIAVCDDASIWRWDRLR
EZH2, sequence (Q15022 whole entry partner): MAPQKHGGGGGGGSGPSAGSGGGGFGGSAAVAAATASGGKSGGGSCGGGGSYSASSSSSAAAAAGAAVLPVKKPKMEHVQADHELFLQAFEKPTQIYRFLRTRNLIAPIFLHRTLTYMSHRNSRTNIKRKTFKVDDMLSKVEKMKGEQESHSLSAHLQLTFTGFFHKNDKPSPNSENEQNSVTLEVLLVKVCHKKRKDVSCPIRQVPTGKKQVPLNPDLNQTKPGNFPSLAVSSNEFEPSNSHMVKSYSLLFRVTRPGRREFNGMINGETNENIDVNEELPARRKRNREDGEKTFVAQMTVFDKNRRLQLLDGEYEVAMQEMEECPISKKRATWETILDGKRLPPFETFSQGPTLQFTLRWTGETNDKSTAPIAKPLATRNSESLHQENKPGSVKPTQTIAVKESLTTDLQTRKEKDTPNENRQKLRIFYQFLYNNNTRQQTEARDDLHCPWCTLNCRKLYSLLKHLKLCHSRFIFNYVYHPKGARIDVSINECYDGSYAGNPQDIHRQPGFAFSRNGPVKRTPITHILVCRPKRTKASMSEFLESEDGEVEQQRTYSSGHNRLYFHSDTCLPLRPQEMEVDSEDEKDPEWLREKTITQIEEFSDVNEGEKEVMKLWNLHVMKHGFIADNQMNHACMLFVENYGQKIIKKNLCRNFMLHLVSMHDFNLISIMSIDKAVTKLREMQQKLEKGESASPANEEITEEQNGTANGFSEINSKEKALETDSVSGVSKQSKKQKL

The target in the assay is EZH2 (Homo sapiens, UniProt Q15910). Put plainly: EZH2 assay: rPRC2 with biotinylated oligonucleosome substrates and 3H SAM, FlashPlate scintillation counting, IC50. In kind it is biochemical. To be noted: rPRC2, biotinylated oligonucleosome substrates, 3H SAM; read-out: EZH2 IC50. As for the experimental part:
Assays were carried out by mixing rPRC2 together with biotinylated oligonucleosome substrates in the presence of the radio-labeled enzyme co-factor, S-adenosyl-L-methionine (^3H SAM) (Perkin Elmer) and monitoring the enzymatically mediated transfer of tritiated methyl groups from ^3H SAM to histone lysine residues. The amount of resulting tritated methylhistone product was measured by first capturing the biotinylated oligonuclesomes in streptavidin (SAV) coated FlashPlates (Perkin Elmer), followed by a wash step to remove un-reacted ^3H SAM, and then counting on a TopCount NXT 384 well plate scintillation counter (Perkin Elmer). The final assay conditions for EZH2 were as follows: 50 mM Tris Buffer pH 8.5, 1 mM DTT, 69 uM Brij-35 detergent, 5.0 mM MgCl2, 0.1 mg/mL BSA, 0.2 uM ^3H SAM, 0.2 uM biotinylated oligonucleosomes, 3.6 uM H3K27me3 peptide and 2 nM EZH2.
Compound IC50 measurements were obtained as follows: Compounds were first dissolved in 100% DMSO as 10 mM stock solutions. […] A 12.5 uL volume of the HMT enzyme, H3K27me3 peptide and oligonucleosome substrate in assay buffer was added to each well of the assay plate using a Multidrop Combi (ThermoFisher). Compounds were pre-incubated with the enzyme for 20 min, followed by initiation of the methyltransferase reaction by addition of 12.5 uL of 3H SAM in assay buffer (final volume=25 uL). The final concentrations of compounds ranged from a top default concentration of 80 uM down to 0.16 uM in ten 2-fold dilution steps. Reactions were carried out for 60 minutes and quenched with 20 uL per well of 1.96 mM SAH, 50 mM Tris PH 8.5, 200 mM EDTA. Stopped reactions were transferred to SAV coated Flashplates (Perkin Elmer), incubated for 120 min, washed with a plate washer, and then read on the TopCount NXT (1.0 min/well) to measure the amount of methylhistone product formed during the reaction. The amount of methylhistone product was compared with the amount of product formed in the 0% and 100% inhibition control wells allowing the calculation of % Inhibition in the presence of the individual compounds at various concentrations. IC50's were computed using a 4 parameter fit non-linear curve fitting software package (XLFIT, part of the database package, ActivityBase (IDBS)) where the four parameters were IC50, Hill slope, pre-transitional baseline (0% INH), and post-transitional baseline (100% INH); with the latter two parameters being fixed to zero and 100%, respectively, by default.
In the case of `O=C(N[C@H]1CCN(Cc2ccccc2)C1)c1ccc(Oc2ccccc2)cc1` (stereo in doubt) [Compound I-101], the pIC50 was less than 4.10.
As for `CC1(C)CC(NC(=O)c2ccc(COc3cccc(-c4ccc(N)nc4)c3)cc2)CC(C)(C)N1` [Compound I-1], the pIC50 is greater than 5.30.
Then `CC1(C)CC(NC(=O)c2ccc(Oc3ccccc3C#N)c(Cl)c2)CC(C)(C)N1` [Compound I-2], with greater than 5.30; and `CC1(C)CC(NC(=O)c2ccc(COc3cccc(-c4cnc(N)nc4)c3)cc2)CC(C)(C)N1` [Compound I-3], with greater than 5.30.
Take `CC1(C)CC(NC(=O)c2ccc(COc3cccc4ccccc34)cc2)CC(C)(C)N1` [Compound I-4]: the pIC50 is greater than 5.30.
Regarding `CC1(C)CC(NC(=O)c2ccc(COc3cccc(-c4cnc5[nH]ccc5c4)c3)cc2)CC(C)(C)N1` [Compound I-5], the negative logarithm of the IC50 (pIC50) was greater than 5.30.
The result for `CC1(C)CC(NC(=O)c2ccc(Oc3ccccc3C#N)cc2)CC(C)(C)N1` [Compound I-6] reads greater than 5.30.
Then `CC1(C)CC(NC(=O)c2ccc(COc3cccc(-c4cccnc4)c3)cc2)CC(C)(C)N1` [Compound I-7], with 4.70 to 5.30.
The result for `CC1(C)CC(NC(=O)c2ccc(COc3cccc(Br)c3)cc2)CC(C)(C)N1` [Compound I-8] reads 4.70 to 5.30; that for `Cc1cc(C)cc(OCc2ccc(C(=O)NC3CC(C)(C)NC(C)(C)C3)cc2)c1` [Compound I-9], 4.70 to 5.30.
For the molecule `CC1(C)CC(NC(=O)c2ccc(Oc3cccnc3C#N)cc2)CC(C)(C)N1` [Compound I-10], the negative-log IC50 (pIC50) is 4.70 to 5.30.
Regarding `CC1(C)CC(NC(=O)c2ccc(COc3cccc(-c4cc[nH]c(=O)c4)c3)cc2)CC(C)(C)N1` [Compound I-11], the pIC50 was 4.70 to 5.30.
As to `CC1(C)CC(NC(=O)c2ccc(COc3cccc(-c4cn[nH]c4)c3)cc2)CC(C)(C)N1` [Compound I-12], the pIC50 is 4.70 to 5.30.
On to `Cc1cncc(-c2cccc(OCc3ccc(C(=O)NC4CC(C)(C)NC(C)(C)C4)cc3)c2)c1` [Compound I-13, 4-((3-(5-methylpyridin-3-yl)phenoxy)methyl)-N-(2,2,6,6-tetramethylpiperidin-4-yl)benzamide], for which the pIC50 is 4.70 to 5.30.
The result for `Cc1ccc(-c2cccc(OCc3ccc(C(=O)NC4CC(C)(C)NC(C)(C)C4)cc3)c2)cn1` [Compound I-14] reads 4.70 to 5.30.
The result for `Cc1ccc(OCc2ccc(C(=O)NC3CC(C)(C)NC(C)(C)C3)cc2)cc1C` [Compound I-15] reads 4.70 to 5.30; that for `CC1(C)CC(NC(=O)c2ccc(Oc3ccccc3Br)cc2)CC(C)(C)N1` [Compound I-16], 4.70 to 5.30.
Then `CC1(C)CC(NC(=O)c2ccc(Oc3cccc(C#N)c3)cc2)CC(C)(C)N1` [Compound I-17], with 4.70 to 5.30; and `Cc1ccc(-c2cccc(OCc3ccc(C(=O)NC4CC(C)(C)NC(C)(C)C4)cc3)c2)s1` [Compound I-18], with 4.70 to 5.30; and `CC1(C)CC(NC(=O)c2ccc(COc3cccc(-c4ccc(F)nc4)c3)cc2)CC(C)(C)N1` [Compound I-19], with 4.70 to 5.30.
For `Cc1ncccc1Oc1ccc(C(=O)NC2CC(C)(C)NC(C)(C)C2)cc1` [Compound I-20], the pIC50 was 4.70 to 5.30.
On to `CC1(C)CC(NC(=O)c2ccc(Oc3cccnc3)cc2)CC(C)(C)N1` [Compound I-21], for which the pIC50 is 4.10 to 4.70.
The result for `Cc1ccc(OCc2ccc(C(=O)NC3CC(C)(C)NC(C)(C)C3)cc2)cc1` [Compound I-22] reads 4.10 to 4.70.
With `Cc1cccc(C)c1OCc1ccc(C(=O)NC2CC(C)(C)NC(C)(C)C2)cc1` [Compound I-23], the pIC50 is 4.10 to 4.70.
Turning to `Cc1cc(C(=O)NC2CC(C)(C)NC(C)(C)C2)ccc1Oc1ccccc1` [Compound I-24], the pIC50 is 4.10 to 4.70.
Then `CC1(C)CC(NC(=O)c2ccc(Oc3ccc(O)cc3)cc2)CC(C)(C)N1` [Compound I-25], with 4.10 to 4.70; and `CC(=O)Nc1cccc(Oc2ccc(C(=O)NC3CC(C)(C)NC(C)(C)C3)cc2)c1` [Compound I-26, 4-(3-Acetamidophenoxy)-N-(2,2,6,6-tetramethylpiperidin-4-yl)benzamide], with 4.10 to 4.70; and `Cc1cc(-c2cccc(OCc3ccc(C(=O)NC4CC(C)(C)NC(C)(C)C4)cc3)c2)cnc1F` [Compound I-27], with 4.10 to 4.70.
The result for `CC1(C)CC(NC(=O)c2ccc(Oc3ccccc3Cl)cc2)CC(C)(C)N1` [Compound I-28] reads 4.10 to 4.70.
The result for `CC1(C)CC(NC(=O)c2ccc(Oc3cccc(O)c3)cc2)CC(C)(C)N1` [Compound I-29] reads 4.10 to 4.70.
Consider `CC1(C)CC(NC(=O)c2ccc(COc3cccc(-c4cccc(O)c4)c3)cc2)CC(C)(C)N1` [Compound I-30], for which the pIC50 was 4.10 to 4.70.
The result for `COc1cc(C(=O)NC2CC(C)(C)NC(C)(C)C2)ccc1COc1cccc(Br)c1` [Compound I-31] reads 4.10 to 4.70; that for `CC1(C)CC(NC(=O)c2ccc(COc3cccc(-c4cncnc4)c3)cc2)CC(C)(C)N1` [Compound I-32], 4.10 to 4.70; that for `CC1(C)CC(NC(=O)c2ccc(COc3cccc(-c4cncc(C#N)c4)c3)cc2)CC(C)(C)N1` [Compound I-33], 4.10 to 4.70.
The result for `CCOC(=O)c1cccc(Oc2ccc(C(=O)NC3CC(C)(C)NC(C)(C)C3)cc2)c1` [Compound I-34] reads 4.10 to 4.70; that for `CCc1ccccc1Oc1ccc(C(=O)NC2CC(C)(C)NC(C)(C)C2)cc1` [Compound I-35], 4.10 to 4.70; that for `CC1(C)CC(NC(=O)c2ccc(COc3cccnc3)cc2)CC(C)(C)N1` [Compound I-36], 4.10 to 4.70.
The result for `COc1cncc(-c2cccc(OCc3ccc(C(=O)NC4CC(C)(C)NC(C)(C)C4)cc3)c2)c1` [Compound I-37] reads 4.10 to 4.70; that for `CC1(C)CC(NC(=O)c2ccc(COc3cccc(-c4ccc(O)cc4)c3)cc2)CC(C)(C)N1` [Compound I-38], 4.10 to 4.70.
Turning to `CC1(C)CC(NC(=O)c2ccc(COc3ccccc3)cc2)CC(C)(C)N1` [Compound I-39], the negative logarithm of the IC50 (pIC50) is 4.10 to 4.70.
Then `CC1(C)CC(NC(=O)c2ccc(Oc3ccccc3F)cc2)CC(C)(C)N1` [Compound I-40], with 4.10 to 4.70; and `COc1ccc(-c2cccc(OCc3ccc(C(=O)NC4CC(C)(C)NC(C)(C)C4)cc3)c2)cn1` [Compound I-41], with 4.10 to 4.70.
Then `Cc1ccc(OCc2ccc(C(=O)NC3CC(C)(C)NC(C)(C)C3)cc2)c(C)c1` [Compound I-42], with 4.10 to 4.70; and `Cc1ccc(CO)cc1Oc1ccc(C(=O)NC2CC(C)(C)NC(C)(C)C2)cc1` [Compound I-43], with 4.10 to 4.70; and `CC1(C)CC(NC(=O)c2ccc(Oc3ccccc3N3CCOCC3)cc2)CC(C)(C)N1` [Compound I-44], with 4.10 to 4.70.
The result for `CC1(C)CC(NC(=O)c2ccc(SCc3ccccc3)cc2)CC(C)(C)N1` [Compound I-45, 4-(Benzylthio)-N-(2,2,6,6-tetramethylpiperidin-4-yl)benzamide] reads 4.10 to 4.70.
`Cc1cccc(OCc2ccc(C(=O)NC3CC(C)(C)NC(C)(C)C3)cc2)c1` [Compound I-46, N-(2,2,6,6-tetramethylpiperidin-4-yl)-4-(m-tolyloxymethyl)benzamide]: the negative-log IC50 (pIC50) was 4.10 to 4.70.
Then `CC1(C)CC(NC(=O)c2ccc(COc3cccc(-c4cccnc4N)c3)cc2)CC(C)(C)N1` [Compound I-47], with 4.10 to 4.70.
With `Cc1ccccc1Oc1ccc(C(=O)NC2CC(C)(C)NC(C)(C)C2)cc1` [Compound I-48], the pIC50 is 4.10 to 4.70.
Take `CC1(C)CC(NC(=O)c2ccc(Oc3ccccc3)c(Cl)c2)CC(C)(C)N1` [Compound I-49, 3-chloro-N-(2,2,6,6-tetramethylpiperidin-4-yl)-4-phenoxybenzamide]: the pIC50 was 4.10 to 4.70.
Regarding `CC1(C)CC(NC(=O)c2ccc(Sc3ccccc3)cc2)CC(C)(C)N1` [Compound I-50], the pIC50 was 4.10 to 4.70.
Then `CC1(C)CC(NC(=O)c2ccc(COc3cccc(-c4cccc(C#N)c4)c3)cc2)CC(C)(C)N1` [Compound I-51], with 4.10 to 4.70; and `CC1(C)CC(NC(=O)c2ccc(Oc3ccccc3)cc2)CC(C)(C)N1` [Compound I-52], with 4.10 to 4.70; and `COC(=O)c1cccc(COc2ccc(C(=O)NC3CC(C)(C)NC(C)(C)C3)cc2)c1` [Compound I-53], with 4.10 to 4.70.
The result for `Cc1cccc(OCc2ccc(C(=O)NC3CC(C)(C)NC(C)(C)C3)cc2)c1C` [Compound I-54] reads 4.10 to 4.70; that for `COc1ncccc1-c1cccc(OCc2ccc(C(=O)NC3CC(C)(C)NC(C)(C)C3)cc2)c1` [Compound I-55], 4.10 to 4.70.
